The assay deals with IL-1β production in PMA-differentiated THP-1 cells. Description: IL-1β production in PMA-differentiated THP-1 cells stimulated with gramicidin (hTHP-1 assay). Format: cell-based, human.
[1] abbreviates: Average IC50, hTHP-1 assay containing 2% fetal bovine serum, Table 10, class symbols.
Where [2] appears, read: Homo sapiens, THP-1, Average IC50, hTHP-1 assay containing 2% fetal bovine serum, Table 10, numeric values.
Setting [3] is: Average IC50, hTHP-1 assay containing 2% fetal bovine serum, Table 10, numeric values.

pIC50: −log10 of the molar value. Some results are limits rather than exact numbers.

`CC(C)(O)c1ccc(CS(N)(=O)=NC(=O)Nc2c3c(cc4c2CCC4)CCC3)cc1` (single isomer, unassigned) [Compound 165b] gave a negative-log IC50 (pIC50) under setting [1] of 6.70 to 7.40.
With `COC(=O)CCCS(=O)(=O)NC(=O)Cc1c(C(C)C)cc(F)cc1C(C)C` [Compound 513], the pIC50 under setting [2] was less than 4.52.
Under setting [2], `CC(C)c1cc(F)cc(C(C)C)c1NC(=O)NS(=O)(=O)C1CC1` [Compound 401] showed a pIC50 of 4.50.
On to `CN(C)S(C)(=O)=NC(=O)Nc1c2c(cc3c1CCC3)CCC2` (stereo not shown) [Compound 107], for which, under setting [2], the pIC50 was less than 4.52.
For `CN(C)Cc1cccc(CS(N)(=O)=NC(=O)Nc2c3c(cc4c2CCC4)CCC3)c1` (stereo not shown) [Compound 164, 1-(3-((dimethylamino)methyl)pheny1)-N′-((1,2,3,5,6,7-hexahydro-s-indacen-4-yl)carbamoyl) methane-sulfonimidamide], the pIC50 (Homo sapiens, THP-1, Average IC50, hTHP-1 assay containing 2% fetal bovine serum, Table 10, class symbols) was 4.52 to 5.30.
On to `CC(CN(C)C)CS(N)(=O)=NC(=O)Nc1c2c(cc3c1CCC3)CCC2` (stereo not shown) [Compound 121], for which the negative-log IC50 (pIC50) under setting [1] is 4.52 to 5.30.
For `CC(C)c1cc(C#N)cc(C(C)C)c1CC(=O)NS(=O)(=O)N1CCC(CN(C)C)CC1` [Compound 202B, 2-(4-cyano-2,6-diisopropylphenyl)-N-((4-((dimethylamino)methyl)piperidin-1-yl)sulfonyl) acetamide], under “Homo sapiens, THP-1, Average IC50, hTHP-1 assay containing 2% fetal bovine serum, Table 3B, class symbols”, the pIC50 was 4.52 to 5.30.
In turn, `NS(=O)(=NC(=O)Nc1c2c(cc3c1CCC3)CCC2)C1CCC1` (single isomer, unassigned) [Compound 145] had a pIC50 under setting [2] of less than 4.52.
Take `CC(C)c1cc(F)cc(C(C)C)c1CC(=O)N=S(N)(=O)C1CC1` (stereo not shown) [Compound 309]: the negative-log IC50 (pIC50) under setting [3] is less than 4.52.
In turn, `CC(C)c1cc(F)cc(C(C)C)c1CC(=O)NS(=O)(=O)Cc1cccnc1` [Compound 522] had a pIC50 under setting [2] of less than 4.00.
Same read-out and setting: with `CC(C)c1cc(F)cc(C(C)C)c1CC(=O)NS(=O)(=O)Cc1cc(-c2ccccc2)no1` [Compound 519] the figure was less than 4.52; with `CNS(C)(=O)=NC(=O)Nc1c2c(cc3c1CCC3)CCC2` (stereo not shown) [Compound 103, N′-((1,2,3,5,6,7-hexahydro-s-indacen-4-yl)carbamoy1)-N-methylmethane-sulfonimidamide], less than 4.52.
`CN(C)CC1(S(N)(=O)=NC(=O)Nc2c3c(cc4c2CCC4)CCC3)CC1` (stereo not shown) [Compound 159] had a negative-log IC50 (pIC50) under setting [3] of less than 4.52.

The values above are taken from patent publication US20220227707A1, “COMPOUNDS AND COMPOSITIONS FOR TREATING CONDITIONS ASSOCIATED WITH NLRP ACTIVITY” (Novartis AG, priority 2019, published 2022).
